Experimental data from patent US20120277171A1, “Warmi®, natural alternative for the treatment of menopause” (priority 2011, published 2012).

Key:
[1] = test system: symptomatic postmenopausal women; test: Greene Climateric Scale; format: in vivo, human; settings: FIGS. 31-35
Description: The changes are observed in sub-categories of Anxiety, Depression, Vasomotor Symptoms and Sexual Aspects.

[2] = test system: FSH, LH, estradiol, progesterone and DHEAS; test: Clinical trial: hormone count in serum (immunochemical luminescence); format: in vivo, human; settings: for reduction of FSH: FIG. 2
Experimental: Laboratory tests were requested prior to the beginning of the treatments (basal levels) and after 3 and 6 months. The levels of the following hormones were measured in the Laboratory of the Molecular Biotechnology Unit of the Research and Development Laboratories of the Universidad Peruana Cayetano Heredia: FSH, LH, estradiol, progesterone and DHEAS. The following normal menopausal values shall be considered: FSH of between 25.0 and 134.8 mlU/mL, LH of between 7.7 and 58.5 mlU/mL, estradiol between <10.0 and 39.5 pg/mL and progesterone between 0.20 and 1.00 ng/mL.
In order to determine the hormonal levels, a peripheral blood test was taken from each patient on an empty stomach and the serum FSH, LH, estradiol, progesterone and DHEAS levels were taken using the immunochemical luminescence method, following the standardized procedures of the laboratory.

human osteocalcin = test: Clinical trial: plasma osteocalcin (EASIA); format: in vivo; settings: after 6 months of treatment; FIG. 13
Experimental: Plasma osteocalcin was measured through the EASIA technique (Enzyme Amplified Sensitivity Immunoassay) using monoclonal antibodies against different epitopes of human osteocalcin (Biosource International, Inc., USA), with a sensitivity of 0.4 ng/mL. Human osteocalcin was measured at the beginning of the treatment and after 6 months of treatment, according to the manufacturer's instructions.
(§1) The levels of cytokines, osteocalcin, growth hormone and C-reactive protein were measured in the Laboratory of the Molecular Biotechnology Unit of the Research and Development Laboratories of the Universidad Peruana Cayetano Heredia (UPCH). All laboratory procedures were conducted in duplicate, standards were used to ensure the reproducibility and quality of the results.

C-reactive protein = test: Clinical trial: C-reactive protein (ELISA); format: in vivo, human; settings: after 6 months of treatment
Experimental: C-reactive protein from human plasma (Diagnostic Automation Inc., USA) was tested with a very sensitive ELISA using a monoclonal antibody against a different antigenic determinant on the C-Reactive Protein molecule, with a sensitivity of […]. C-reactive protein (CRP) was measured prior to treatment and after 6 months of treatment, according to the manufacturer's instructions.
as §1

[3] = test system: triglycerides (TG), total cholesterol (TC), HDL, LDL and serum glucose levels; test: Clinical trial: lipids and glucose count; format: in vivo, human
Experimental: The triglycerides (TG), total cholesterol (TC), HDL, LDL and serum glucose levels (Valtek S.A.) were measured based on a peripheral blood test prior to the start of the treatment, at months 1, 3 and 6 following treatment. TG, TC and HDL levels were measured with a MicroLab semiautomatic analyzer, through an enzymatic colorimetric technique, using the manufacturer's manual and procedures. Normal values shall be TC<200 mg/dL, HDL>35 mg/dL, LDL<130 mg/dL and TG<170 mg/dL.

[4] = Clinical trial: anthropometric parameters and vital signs; format: in vivo, human; settings: mean ± SD
Experimental: (§2) Prospective, longitudinal, double blind, three stage, comparative clinical and laboratory evaluation trials on symptomatic postmenopausal women who attended the menopause medical units of the Hospital Nacional Cayetano Heredia, Hospital Nacional Arzobispo Loayza, Hospital Docente Madre Niño San Bartolomé and the medical unit of the Universidad Nacional Agraria La Molina.
(§3) Warmi® capsules (510 mg) were manufactured by Laboratorios Hersil S.A. Capsules were manufactured following Good Manufacturing Practices (GMP) and following the Hazard Analysis and Critical Control Points (HACCP). Warmi® is a natural proprietary blend composed of β-sitosterol, glucosinolates and citrus flavonoids (hesperidin). […] Patients received 3 capsules a day to be taken every 6 hours.
Tibolone was used as HRT. Tibolone was masked in a capsule with the same appearance as the previous groups. Patients received 3 capsules a day to be taken every 6 hours. Tibolone is the latest treatment for menopausal symptoms in Peru. Tibolone is a synthetic steroid with estrogenic, progestogenic and androgenic activity, used for the treatment of menopausal symptoms and post-menopausal osteoporosis. It has been observed that Tibolone reduces the level of triglycerides, HDL, total cholesterol and with no effect on the LDL.
The sample group was integrated by symptomatic postmenopausal women who attend the menopause centers of the participating hospitals. 135 participants were accepted in the study and each hospital recruited the patients that were randomly assigned to the three treatment groups: Warmi®, Tibolone and placebo.
The statistical analysis was done using a SPSS statistical package (version 11.0). […] The variables were analyzed as a change in relation to the basal level and compared by treatment groups.

[5] = human, in vivo
Experimental: as §2, §3
Tibolone was used as HRT. Tibolone was masked in a capsule with the same appearance as the previous groups. Patients received 3 capsules a day to be taken every 6 hours. […]
The statistical analysis was done using a SPSS statistical package (version 11.0). The results were expressed as a mean±standard error (SE), and a p<0.05 was considered significant. The variables were analyzed as a change in relation to the basal level and compared by treatment groups.
There was a small decrease in the hematocrit (1.43%) of the placebo group. […] Upon observing the other quantifiable parameters, no significant changes are noticed.

[6] = test system: TNF-α, INF-y and IL-6 cytokines; test: Clinical trial: cytokine count; format: in vivo, human
Experimental: Peripheral blood samples were obtained in vacutainer test tubes with anticoagulant (Becton Dickenson, BD). The biological sample was previously centrifuged and stored at a −70° C. for the respective cytokine count. Type Th1: TNF-α, INF-y and Th2: IL-6 cytokines were counted. The manufacturer's instructions were followed and the cytokine concentrations were calculated according to the specifications (Pharmingen, BD). Cytokines were measured prior to and upon conclusion of the treatment.
as §1

Q: For C#C[C@]1(O)CC[C@H]2[C@@H]3[C@H](C)CC4=C(CCC(=O)C4)[C@H]3CC[C@@]21C [Tibolone], which “Greene survey: sub-categories Anxiety, Depression, Vasomotor Symptoms and Sexual Aspects (in words)” value [1] is on record?
A: Changes were also observed

Q: What about the “reduction of FSH” value ([2]; month six of treatment) of the same compound?
A: 16.20%

Q: And the “reduction of FSH” value ([2]; month three of treatment)?
A: 29.58%

Q: What about the “drop of DHEAS in serum” value ([2]; month three, FIG. 3) of the same compound?
A: 12.87%

Q: What about the decrease of progesterone ([2]; month three, FIG. 4) of the same compound?
A: 29.70%

Q: What about the “effect on osteocalcin levels (in words)” value (human osteocalcin) of the same compound?
A: significant reduction

Q: And the “increase of CRP (change in percentage)” value (C-reactive protein)?
A: 26.83%

Q: And the “effect on triglycerides levels (in words)” value ([3]; FIG. 8)?
A: significant decrease

Q: What about the “effect on HDL levels (in words)” value ([3]; FIG. 9, Tibolone: after 1, 3 and 6 months of treatment) of the same compound?
A: significant reduction

Q: And the “effect on LDL levels (in words)” value ([3]; FIG. 10)?
A: significant reduction

Q: What about the “effect on LDL/HDL ratio (in words)” value ([3]; FIG. 12, Tibolone: after six months, Warmi: after both 3 and 6 months) of the same compound?
A: reduction

Q: What about the “reduction of total cholesterol” value ([3]; after six months of treatment, FIG. 7) of the same compound?
A: 12.37%

Q: What about the “reduction in the level of glycemia” value ([3]; at the end of the study, FIG. 6) of the same compound?
A: 7.39%

Q: And the “Diastolic BP” value ([4]; 3rd Month)?
A: 72.5 ± 10.83

Q: What about the “Heart Rate” value ([4]; 3rd Month) of the same compound?
A: 63.66 ± 1.96

Q: What about the “Pulse Pressure” value ([4]; 3rd Month) of the same compound?
A: 64 ± 1.78

Q: What about the “Respiratory Rate” value ([4]; 3rd Month) of the same compound?
A: 16.33 ± 0.98

Q: What about the “Systolic BP” value ([4]; 3rd Month) of the same compound?
A: 113.33 ± 8.16

Q: And the “Diastolic BP” value ([4]; 6th Month)?
A: 73.16 ± 11.4

Q: What about the “Heart Rate” value ([4]; 6th Month) of the same compound?
A: 62.67 ± 2.42

Q: And the “Pulse Pressure” value ([4]; 6th Month)?
A: 62.67 ± 2.42

Q: And the “Systolic BP” value ([4]; 6th Month)?
A: 110 ± 8.98

Q: What about the “Respiratory Rate” value ([4]; 6th Month, *p ≦ 0.05) of the same compound?
A: 16.16 ± 0.41

Q: What about the “increase in the hematocrit” value [5] of the same compound?
A: 3.53%

Q: And the “effect on interferon gamma (INF-y) (in words)” value ([6]; FIG. 16, none were significant)?
A: slight increases

Q: And the “effect on Interleukin 6 (IL-6) levels (in words)” value ([6]; FIG. 17, Tibolone: after 3 months alone, Warmi: after both treatment periods)?
A: significantly reduced
